Measurements published in publication PMC9014845 (Clinical cancer research : an official journal of the …, 2019).

What was measured:
monkeys = assay: 4-week repeated-dose toxicity study; type: in vivo, monkey
Plasma pharmacokinetics = type: in vivo, human
FGFR = assay: Tissue biomarkers in skin and tumor biopsies; type: in vivo, human
[1] = Allometric scaling of single dose PK data from mice, rats and monkeys; parameters: species or system human; conditions: allometric scaling model of single dose PK data from mice, rats, monkeys

In the case of Debio 1347, the “Highest non-severely toxic dose” value (monkeys) is reported as 4 mg/kg/day, the “Mean relative oral bioavailability of tablets versus capsules” value (Plasma pharmacokinetics; 40 mg single dose, cross-over, 90% CI 0.73–1.05, n=9) is reported as 0.88 and the “Time to steady-state (Ctrough)” value (Plasma pharmacokinetics; majority of patients, once-daily dosing) is reported as “during the first week of treatment”. The “Time to detection in plasma” value (Plasma pharmacokinetics; post-first dose, majority of patients) was at most 30 min, the Median tmax (Plasma pharmacokinetics; post-first oral dose, range 1.5–24) was 3 h and the “Plasma half-life (mean)” value (Plasma pharmacokinetics; post-first oral dose, range 4.7–20.6) was 11.5 h. For the same substance, the “Mean apparent oral clearance” value (Plasma pharmacokinetics; range 2.7–13.9) was 7.0 L/h, the “DUSP6 mRNA expression change in tumor biopsies” value (FGFR; on treatment (day 8), 14 paired biopsies) was “a decrease in DUSP6 was observed” and the “Change of phosphorylated markers (pERK, pFRS2, pS6) in skin biopsies” value (FGFR; predose to day 8, 31 biopsy pairs, immunohistochemistry) was “no clear decrease”. The “Patients with DUSP6 decrease >50% who achieved a PR” value (FGFR; tumor biopsies) was “two out of three” and the “Predicted plasma half-life in humans” value [1] was 9 h.
